The test system of series [1] is Leishmania infantum. The series can be described thus: Antileishmanial activity against Leishmania infantum MHOM/BR/1972/LD amastigotes infected in mouse Peritoneal macrophage cells assessed as inhibition of parasite growth incubated for 96 hrs by light microscopic analysis. In kind it is functional, organism-based.
Series [2] is described as follows: Selectivity index, ratio of CC50 for cytotoxicity against mouse NCTC clone 929 cells assessed as inhibition of cell growth to IC50 for antileishmanial activity against Leishmania infantum MHOM/BR/1972/LD amastigotes infected in mouse Peritoneal macrophage cells assessed as inhibition of parasite growth. In kind it is toxicity, cell-based. The note with it: read-out: Ratio CC50/IC50.

Setting [3] is: Leishmania infantum, MHOM/BR/1972/LD, Peritoneal macrophage, 96 h, read-out: IC50.

The structures appear in SMILES notation. Bounds are passed on as bounds.

Results on 39 compounds are retold here after ChEMBL document CHEMBL5329158 (RSC Med Chem, 2023).

Regarding `C=CCc1ccc(Oc2cc(CC=C)cc(OC)c2OCOC)c(OC)c1`, the IC50 in series [1] (setting [3]) is over 50 µM.

Consider `C=CCc1ccc(Oc2cc(CC=C)cc(OC)c2OCC(=O)N2CCOCC2)c(OC)c1`, for which, in series [1] (setting [3]), the IC50 was over 50 µM.

`C=CCc1ccc(Oc2cc(CC=C)cc(OC)c2O)cc1`: in series [1] (peritoneal macrophage), the IC50 entry is given as “Not Active”.

As to `C=CCc1cc(OC)c(O)c(Oc2ccc(CN3CCCC3)cc2OC)c1`, in series [1] (setting [3]), the IC50 was over 50 µM.

Take `C=CCc1cc(OC)c(O)c(Oc2ccccc2OC)c1`: the IC50 in series [1] (setting [3]) was over 50 µM.

For the compound `C=CCc1ccc(Oc2cc(CC=C)cc(OC)c2OCCN2CCOCC2)c(OC)c1`, the selectivity ratio in series [2] is 6.6.

`C=CCc1cc(OC)c(OCc2ccc(OC)cc2)c(Oc2ccc(CN3CCOCC3)cc2OC)c1`: the selectivity ratio in series [2] is over 20.6.

As for `C=CCc1cc(OC)cc(Oc2ccc(CC=C)cc2OC)c1`, in series [1] (setting [3]), the IC50 is over 50 µM.

Take `C=CCc1cc(OC)c(OC)c(Oc2ccc(CCC)cc2OC)c1`: the IC50 in series [1] (setting [3]) is over 50 µM.

Turning to `C=CCc1cc(OC)c(OCc2ccc(OC)cc2)c(Oc2ccc(CCC)cc2OC)c1`, in series [1] (setting [3]), the IC50 was over 50 µM.

In the case of `CCCc1ccc(Oc2cc(CN3CCOCC3)cc(OC)c2OCc2ccc(C(F)(F)F)cc2)c(OC)c1`, the selectivity ratio in series [2] is over 15.1.

For `CCCc1cc(OC)c(OCc2ccc(OC)cc2)c(Oc2ccc(CN3CCOCC3)cc2OC)c1`, in series [2], the selectivity ratio was 9.7.

For `CCCc1ccc(Oc2cc(CN3CCOCC3)cc(OC)c2OCc2ccc(OC)cc2)c(OC)c1`, the selectivity ratio in series [2] was over 12.2.

In the case of `C=CCc1ccc(Oc2cccc(OC)c2O)c(OC)c1`, the IC50 in series [1] (setting [3]) is over 50 µM.

For `C=CCc1ccc(Oc2cc(CC=C)cc(OC)c2OCCN2CCCC2)c(OC)c1`, in series [2], the selectivity ratio came to 6.

Turning to `COc1ccc(COc2c(OC)cc(CN3CCOCC3)cc2Oc2ccc(CN3CCOCC3)cc2OC)cc1`, the selectivity ratio in series [2] was 2.7.

Consider `C=CCc1ccc(Oc2cc(CC=C)cc(OC)c2OCc2ccc(OC)cc2)cc1`, for which, in series [1] (peritoneal macrophage), the IC50 entry is given as “Not Active”.

In the case of `C=CCc1ccc(Oc2cc(CC=C)cc(OC)c2OCC(=O)N2CCCC2)c(OC)c1`, in series [2], the selectivity ratio was 2.6.

Regarding `C=CCc1ccc(Oc2cccc(OC)c2OC(C)=O)c(OC)c1`, the IC50 in series [1] (setting [3]) was over 50 µM.

`CCCc1ccc(Oc2cc(CN3CCOCC3)cc(OC)c2OCc2cc(OC)c(OC)c(OC)c2)c(OC)c1`: the selectivity ratio in series [2] is over 7.6.

For the compound `C=CCc1cc(OC)c(OCc2ccc(OC)cc2)c(Oc2ccc(CN3CCCC3)cc2OC)c1`, in series [1] (setting [3]), the IC50 is over 50 µM.

Regarding `C=CCc1ccc(Oc2cc(CCC)cc(OC)c2OCc2ccc(OC)cc2)c(OC)c1`, the IC50 in series [1] (setting [3]) was over 50 µM.

With `CCCc1ccc(Oc2cc(CN3CCCCC3)cc(OC)c2OCc2ccc(OC)cc2)cc1`, the selectivity ratio in series [2] worked out at 7.6.

Take `CCCc1cc(OC)c(OCc2ccc(OC)cc2)c(Oc2ccc(CN3CCCCC3)cc2OC)c1`: the selectivity ratio in series [2] came to 3.9.

For the compound `CCCc1ccc(OCc2ccc(OC)cc2)c(Oc2ccc(CN3CCOCC3)cc2OC)c1`, in series [1] (peritoneal macrophage), the IC50 entry is given as “Not Active”.

Consider `C=CCc1cc(OC)c(OC(C)=O)c(Oc2ccccc2OC)c1`, for which the selectivity ratio in series [2] was over 6.1.

On to `C=CCc1ccc(Oc2cc(CC=C)cc(OC)c2OCc2ccc(OC)cc2)c(OC)c1`, for which, in series [1] (setting [3]), the IC50 was over 50 µM.

On to `C=CCc1ccc(Oc2cc(CC=C)ccc2OCc2ccc(OC)cc2)c(OC)c1`, for which the IC50 entry in series [1] (peritoneal macrophage) was “Not Active”.

As to `C=CCc1ccc(Oc2cccc(OC)c2OCc2ccc(OC)cc2)c(OC)c1`, in series [1] (peritoneal macrophage), the IC50 result was “Not Active”.

Regarding `C=CCc1cc(OC)c(O)c(Oc2ccc(CN3CCOCC3)cc2OC)c1`, in series [1] (setting [3]), the IC50 was over 50 µM.

In the case of `C=CCc1cc(OC)c(O)c(Oc2ccc(CCC)cc2OC)c1`, the IC50 in series [1] (setting [3]) is over 50 µM.

Consider `C=CCc1cc(OC)c(OCc2ccc(OC)cc2)c(Oc2ccccc2OC)c1`, for which, in series [2], the selectivity ratio is over 8.3.

As for `C=CCc1ccc(Oc2cc(CCC)cc(OC)c2O)c(OC)c1`, in series [1] (setting [3]), the half-inhibitory concentration (IC50) is over 50 µM.

As to `C=CCc1ccc(Oc2cccc(OC)c2OC)c(OC)c1`, the IC50 in series [1] (setting [3]) was over 50 µM.

On to `CCCc1ccc(Oc2cc(CN3CCOCC3)cc(OC)c2OCc2ccc(OC)cc2)cc1`, for which the selectivity ratio in series [2] is over 13.1.

As for `CCCCCCCCCCCCCCCCOP(=O)([O-])OCC[N+](C)(C)C` [MILTEFOSINE], in series [2], the selectivity ratio worked out at 18.4.

With `C=CCc1ccc(O)c(Oc2ccc(CC=C)cc2OC)c1`, the IC50 result in series [1] (peritoneal macrophage) is given as “Not Active”.

On to `CCCc1ccc(Oc2cc(CCC)cc(OC)c2OCc2ccc(OC)cc2)c(OC)c1`, for which, in series [1] (setting [3]), the IC50 is over 50 µM.

With `C=CCc1cc(OC)c(OC)c(Oc2ccccc2OC)c1`, the IC50 in series [1] (setting [3]) is over 50 µM.

What is called IC50 is the concentration that gives 50% inhibition.
